Assay results reported in the NIST ThermoML archive (doi:10.1021/je049540s).
± gives the expanded uncertainty stated by the source. Each block holds one compound with its values, some of them ahead of it.

Assays:
[1] = xn = mol fraction of the nth substance listed; details: 308.15 K, 101.3 kPa, Liquid
[2] = activity coefficient (dimensionless); of the first substance listed, at infinite dilution; xn = mol fraction of the nth substance listed; details: 101.3 kPa, Liquid, Differential ebulliometry, x1 = 0
[3] = 308.15 K; 101.3 kPa; Liquid
[4] = refractive index (Na D-line) (dimensionless); details: 101.33 kPa, Liquid, Standard Abbe refractometry

mass density ([1]; x1 = 0.1287): 748.52 ± 0.34 kg/m3
mass density ([1]; x1 = 0.1853): 758.11 ± 0.33 kg/m3
mass density ([1]; x1 = 0.3395): 787.84 ± 0.31 kg/m3
mass density ([1]; x1 = 0.389): 798.63 ± 0.3 kg/m3
mass density ([1]; x1 = 0.5024): 826.11 ± 0.29 kg/m3
mass density ([1]; x1 = 0.6023): 854.21 ± 0.26 kg/m3
mass density ([1]; x1 = 0.6949): 884.19 ± 0.23 kg/m3
mass density ([1]; x1 = 0.8): 923.73 ± 0.19 kg/m3
mass density ([1]; x1 = 0.9): 968.61 ± 0.14 kg/m3
mass density ([1]; x1 = 1): 1022.02 ± 0.13 kg/m3
activity coefficient ([2]; 393.15 K): 6.25 ± 0.88
activity coefficient ([2]; 413.15 K): 4.9 ± 0.69
activity coefficient ([2]; 433.15 K): 3.93 ± 0.55
SMILES: Cc1cccc(O)c1 [3-methylphenol] + CCCCCCCCCCC

SMILES: CCCCCCCCCCC [undecane] + Cc1ccccc1O
mass density ([1]; x2 = 0): 729.13 ± 0.36 kg/m3
mass density ([1]; x2 = 0.0367): 734.21 ± 0.35 kg/m3
mass density ([1]; x2 = 0.0684): 738.92 ± 0.35 kg/m3
mass density ([1]; x2 = 0.0746): 739.92 ± 0.35 kg/m3
mass density ([1]; x2 = 0.1306): 748.8 ± 0.35 kg/m3
mass density ([1]; x2 = 0.2094): 762.7 ± 0.34 kg/m3
mass density ([1]; x2 = 0.2809): 776.41 ± 0.34 kg/m3
mass density ([1]; x2 = 0.3636): 794.01 ± 0.34 kg/m3
mass density ([1]; x2 = 0.4749): 820.79 ± 0.35 kg/m3
mass density ([1]; x2 = 0.5311): 835.93 ± 0.36 kg/m3
mass density ([1]; x2 = 0.5989): 855.95 ± 0.36 kg/m3
mass density ([1]; x2 = 0.6593): 875.61 ± 0.37 kg/m3
mass density ([1]; x2 = 0.7261): 899.41 ± 0.38 kg/m3
mass density ([1]; x2 = 0.8065): 931.92 ± 0.39 kg/m3
mass density ([1]; x2 = 0.8662): 959.18 ± 0.41 kg/m3
mass density ([1]; x2 = 0.9476): 1001.43 ± 0.45 kg/m3

mass density ([1]; x1 = 0.1021): 726.54 ± 0.36 kg/m3
mass density ([1]; x1 = 0.1998): 747.24 ± 0.34 kg/m3
mass density ([1]; x1 = 0.302): 770.94 ± 0.33 kg/m3
mass density ([1]; x1 = 0.4021): 796.76 ± 0.31 kg/m3
mass density ([1]; x1 = 0.5): 825 ± 0.31 kg/m3
mass density ([1]; x1 = 0.7): 892.22 ± 0.23 kg/m3
mass density ([1]; x1 = 0.9): 974.43 ± 0.14 kg/m3
mass density ([1]; x1 = 1): 1022.02 ± 0.13 kg/m3
activity coefficient ([2]; 373.15 K): 9.21 ± 1.3
activity coefficient ([2]; 393.15 K): 7.06 ± 0.99
activity coefficient ([2]; 413.15 K): 5.96 ± 0.83
SMILES: Cc1cccc(O)c1 [3-methylphenol] + CCCCCCCCC

SMILES: Cc1ccccc1O [2-methylphenol]
mass density [3]: 1032.73 ± 0.49 kg/m3
refractive index ([4]; 308.15 K): 1.5386 ± 0.0007

mass density ([1]; x1 = 0.1325): 756.67 ± 0.34 kg/m3
mass density ([1]; x1 = 0.2055): 767.97 ± 0.33 kg/m3
mass density ([1]; x1 = 0.3009): 784.51 ± 0.32 kg/m3
mass density ([1]; x1 = 0.4009): 804.35 ± 0.31 kg/m3
mass density ([1]; x1 = 0.6976): 883.71 ± 0.23 kg/m3
mass density ([1]; x1 = 0.7987): 921.29 ± 0.2 kg/m3
mass density ([1]; x1 = 0.895): 963.9 ± 0.15 kg/m3
mass density ([1]; x1 = 1): 1022.02 ± 0.13 kg/m3
SMILES: Cc1cccc(O)c1 [3-methylphenol] + CCCCCCCCCCCC

mass density [3]: 1022.02 ± 0.13 kg/m3
refractive index ([4]; 293.15 K): 1.5401 ± 0.0007
SMILES: Cc1cccc(O)c1 [3-methylphenol]

SMILES: CCCCCCCCCCC [undecane] + Cc1cccc(O)c1
mass density ([1]; x2 = 0): 729.13 ± 0.36 kg/m3

activity coefficient ([2]; 373.15 K): 7.79 ± 1.1
activity coefficient ([2]; 403.15 K): 5.37 ± 0.75
activity coefficient ([2]; 433.15 K): 4.26 ± 0.6
SMILES: Cc1cccc(O)c1 [3-methylphenol] + CCCCCCCCCC

SMILES: Cc1ccccc1O [2-methylphenol] + CCCCCCCCCC
mass density ([1]; x1 = 0.0637): 730.49 ± 0.42 kg/m3
mass density ([1]; x1 = 0.0908): 735.2 ± 0.42 kg/m3
mass density ([1]; x1 = 0.162): 748.33 ± 0.42 kg/m3
mass density ([1]; x1 = 0.2086): 757.57 ± 0.42 kg/m3
mass density ([1]; x1 = 0.272): 770.9 ± 0.41 kg/m3
mass density ([1]; x1 = 0.3186): 781.32 ± 0.42 kg/m3
mass density ([1]; x1 = 0.4014): 801.21 ± 0.42 kg/m3
mass density ([1]; x1 = 0.4707): 819.47 ± 0.43 kg/m3
mass density ([1]; x1 = 0.529): 836.06 ± 0.43 kg/m3
mass density ([1]; x1 = 0.6014): 858.4 ± 0.43 kg/m3
mass density ([1]; x1 = 0.6596): 878.02 ± 0.43 kg/m3
mass density ([1]; x1 = 0.7379): 906.95 ± 0.43 kg/m3
mass density ([1]; x1 = 0.7876): 927.04 ± 0.43 kg/m3
mass density ([1]; x1 = 0.8714): 964.58 ± 0.44 kg/m3
mass density ([1]; x1 = 0.9348): 996.28 ± 0.45 kg/m3
mass density ([1]; x1 = 0.9617): 1010.78 ± 0.47 kg/m3
mass density ([1]; x1 = 1): 1032.73 ± 0.49 kg/m3
activity coefficient ([2]; 393.15 K): 4.15 ± 0.58
activity coefficient ([2]; 413.15 K): 3.49 ± 0.49
activity coefficient ([2]; 433.15 K): 3.04 ± 0.43

SMILES: Cc1ccccc1O [2-methylphenol] + CCCCCCCCC
mass density ([1]; x1 = 0.0661): 719.58 ± 0.37 kg/m3
mass density ([1]; x1 = 0.0684): 720.02 ± 0.37 kg/m3
mass density ([1]; x1 = 0.1489): 736.5 ± 0.36 kg/m3
mass density ([1]; x1 = 0.2085): 749.6 ± 0.35 kg/m3
mass density ([1]; x1 = 0.2703): 764.08 ± 0.35 kg/m3
mass density ([1]; x1 = 0.3994): 797.32 ± 0.35 kg/m3
mass density ([1]; x1 = 0.4008): 797.69 ± 0.35 kg/m3
mass density ([1]; x1 = 0.4688): 817.04 ± 0.36 kg/m3
mass density ([1]; x1 = 0.5237): 833.66 ± 0.37 kg/m3
mass density ([1]; x1 = 0.5941): 856.51 ± 0.36 kg/m3
mass density ([1]; x1 = 0.6631): 880.76 ± 0.37 kg/m3
mass density ([1]; x1 = 0.7323): 906.98 ± 0.38 kg/m3
mass density ([1]; x1 = 0.8106): 939.53 ± 0.39 kg/m3
mass density ([1]; x1 = 0.8674): 965.12 ± 0.41 kg/m3
mass density ([1]; x1 = 0.9285): 994.76 ± 0.44 kg/m3
mass density ([1]; x1 = 1): 1032.73 ± 0.49 kg/m3
activity coefficient ([2]; 373.15 K): 5.84 ± 0.82
activity coefficient ([2]; 393.15 K): 4.58 ± 0.64
activity coefficient ([2]; 413.15 K): 3.8 ± 0.5

SMILES: Cc1ccccc1O [2-methylphenol] + CCCCCCCCCCC
mass density ([1]; x1 = 1): 1032.73 ± 0.49 kg/m3
activity coefficient ([2]; 393.15 K): 4.47 ± 0.63
activity coefficient ([2]; 413.15 K): 3.77 ± 0.53
activity coefficient ([2]; 433.15 K): 2.85 ± 0.4

mass density [3]: 738.63 ± 0.36 kg/m3
refractive index ([4]; 293.15 K): 1.421 ± 0.0007
SMILES: CCCCCCCCCCCC [dodecane]

SMILES: CCCCCCCCCC [decane]
mass density [3]: 720.24 ± 0.42 kg/m3
refractive index ([4]; 308.15 K): 1.4055 ± 0.0007

SMILES: CCCCCCCCC [nonane] + Cc1cccc(O)c1
mass density ([1]; x2 = 0): 707.41 ± 0.38 kg/m3

SMILES: CCCCCCCCCC [decane] + Cc1ccccc1O
mass density ([1]; x2 = 0): 720.24 ± 0.42 kg/m3

SMILES: CCCCCCCCC [nonane]
mass density [3]: 707.41 ± 0.38 kg/m3
refractive index ([4]; 293.15 K): 1.4058 ± 0.0007

SMILES: CCCCCCCCCCC [undecane]
mass density [3]: 729.13 ± 0.36 kg/m3
refractive index ([4]; 293.15 K): 1.4164 ± 0.0007

SMILES: CCCCCCCCC [nonane] + Cc1ccccc1O
mass density ([1]; x2 = 0): 707.41 ± 0.38 kg/m3

mass density ([1]; x2 = 0): 738.63 ± 0.36 kg/m3
SMILES: CCCCCCCCCCCC [dodecane] + Cc1cccc(O)c1
